# Experimental data: paper PMC6470589, “Contribution of Molecular Structure to Self-Assembling and Biological Properties of Bifunctional Lipid-Like 4-(N-Alkylpyridinium)-1,4-Dihydropyridines” (Pharmaceutics, 2019)
# Assays:
# [1] = system: transgenic Alzheimer's disease female mice; design: method as in PMID 27345857; conditions: cited from earlier work
# [2] = system: DPPC (1,2-dipalmitoyl-sn-glycero-3-phosphocholine) vesicles with DPH probe; assay: Phospholipid binding assay (quenching of DPH fluorescence); conditions: DPPC 2 × 10^−5 M, DPH 5 × 10^−6 M, 1,4-DHP 5 × 10^−5 M
# Method: Binding studies of the 4-(N-alkylpyridinium)-1,4-DHP derivatives 1–11 with phospholipid were carried out in Tris-buffered saline (TBS) buffer (10 mM of Tris, 150 mM of NaCl, pH 7.4) by a fluorescence probe technique using a modified protocol described by Ma et al.. Briefly, 1,2-dipalmitoyl-sn-glycero-3-phosphocholine (DPPC) vesicles dispersed in TBS buffer were prepared by sonication of the lipid solution using a probe sonifier for 30 min. The concentration of DPPC stock solution was 6 × 10^−5 M; the concentration of the stock solutions of the 4-(N-alkylpyridinium)-1,4-DHP derivatives were 1.5 × 10^−4 M.
# To characterise the hydrophobic interaction between the 1,4-DHP and phospholipids, 1,6-diphenyl-1,3,5-hexatriene (DPH) was used as a fluorescence probe. […]
# Mixtures containing 40 µL of DPPC stock solution (6 × 10^−5 M) and 40 µL of DPH diluted stock solution (15 × 10^−6 M) were incubated at 50 °C for 0.5 h in the dark; then, an aliquot of 4-(N-alkylpyridinium)-1,4-DHP derivatives was added with the following incubation at 50 °C for 0.5 h in the dark, after which samples were cooled to room temperature and the fluorescence intensity was measured by a Tecan multiplate reader Infinite1000 (Tecan Austria GmbH, Salzburg, Austria). […]
smiles,measurement,setting,value
CCCCCCCCCCCC[n+]1cccc(C2C(C(=O)OCC)=C(C)NC(C)=C2C(=O)OCC)c1 [Compound 3],Memory-improving anxiolytic effects,[1],memory-improving anxiolytic effects
same,Quenching of the fluorescence of the DPH-DPPC system,[2],lowest relative fluorescence intensity
